Measured values reported in patent publication US12351574B2, “Selective ligands for modulation of GIRK channels” (Northeastern University, priority 2018, dated 2025).

Biological target: T1, GIRK1-S65Y with GIRK2 (UniProt P48542+P48549, S65Y)
T1 construct: expressed in transfected cells; host or cells: HEK293 cells
T1 sequence (P48549 1-501 S65Y): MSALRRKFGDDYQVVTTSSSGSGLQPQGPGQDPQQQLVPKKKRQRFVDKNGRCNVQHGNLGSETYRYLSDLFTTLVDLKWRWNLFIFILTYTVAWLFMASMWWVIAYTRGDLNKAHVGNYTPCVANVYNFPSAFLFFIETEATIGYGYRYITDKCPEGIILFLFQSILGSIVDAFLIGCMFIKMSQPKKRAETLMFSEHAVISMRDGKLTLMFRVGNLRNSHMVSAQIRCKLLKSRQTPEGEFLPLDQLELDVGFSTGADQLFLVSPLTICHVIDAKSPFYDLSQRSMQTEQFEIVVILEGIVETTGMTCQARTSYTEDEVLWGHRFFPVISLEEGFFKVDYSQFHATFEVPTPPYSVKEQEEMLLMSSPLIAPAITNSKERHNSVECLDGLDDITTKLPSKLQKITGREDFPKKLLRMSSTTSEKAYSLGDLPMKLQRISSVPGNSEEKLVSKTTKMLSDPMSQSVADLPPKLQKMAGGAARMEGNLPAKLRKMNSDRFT
T1 sequence (P48542 1-425): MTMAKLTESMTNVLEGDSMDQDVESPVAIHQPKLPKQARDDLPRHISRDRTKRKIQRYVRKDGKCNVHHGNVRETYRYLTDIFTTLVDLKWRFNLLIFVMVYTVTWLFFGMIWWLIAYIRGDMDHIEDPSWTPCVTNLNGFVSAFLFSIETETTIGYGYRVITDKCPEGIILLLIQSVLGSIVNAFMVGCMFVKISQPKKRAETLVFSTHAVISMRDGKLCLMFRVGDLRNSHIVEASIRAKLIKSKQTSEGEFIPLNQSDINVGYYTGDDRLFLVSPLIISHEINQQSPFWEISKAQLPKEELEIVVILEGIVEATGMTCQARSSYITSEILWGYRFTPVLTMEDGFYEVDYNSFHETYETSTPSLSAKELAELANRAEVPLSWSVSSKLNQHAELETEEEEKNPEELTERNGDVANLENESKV
Test: 5-ptaseOCRL current inhibition, GIRK1/2 channels containing GIRK1-S65Y subunits
Assay type: cell-based, human GIRK1, mouse GIRK2
Conditions: 10 μM GAT1508
From the text: To identify changes in specific channel residue interactions with PIP2 upon ligand binding, the inventors carried out Principal Component Analysis (PCA) in the presence and absence of ML297 and GAT1508. The PCA analysis implicated changes in the slide (or interfacial) helix interactions with PIP2 upon ligand binding. Polar interactions could be formed between GIRK2^FD(Y76) and GIRK4^FD(Y71) with the P(4,5) of PIP2 when ML297 was bound to the same subunit (FIG. 39 top, FIG. 40). In contrast, when GAT1508 was bound this interaction was retained by GIRK2^FD but not GIRK4^FD (FIG. 39 bottom, FIG. 40). The corresponding GIRK1(S65) residue (FIG. 41, highlighted with vertical rectangle) could be serving the same role in stabilizing the phosphoinositol headgroup for interactions with non-ligand binding subunits. As polar residues, both Ser and Tyr could form H-bond interactions with PIP2. […]
Patch-clamp recording: Whole-cell currents were recorded with an Axopatch 200B amplifier (Molecular Devices) controlled via a USB-interface (National Instruments) using WinWCP software (University of Strathclyde). […] The barium-sensitive component of the current, observed when cells were perfused with the high-K^+ buffer, was analyzed and was determined by perfusing 5 mM BaCl2 in the high-K^+ buffer at the end of each experiment. […]

protection of current from 5-ptaseOCRL (in words): no additional effect
SMILES: Cc1cc(NC(=O)Nc2ccc(Br)s2)n(-c2ccccc2)n1 [GAT1508, 1-(5-bromothiophen-2-yl)-3-(3-methyl-1-phenyl-1H-pyrazol-5-yl)urea]
